Measured values from paper PMC8620908, “Design, Synthesis, In Vitro Anticancer Evaluation and Molecular Modelling Studies of 3,4,5-Trimethoxyphenyl-Based Derivatives as Dual EGFR/HDAC Hybrid Inhibitors” (Pharmaceuticals, 2021).
Values joined by “and” are separate entries in the source; they are usually repeats but may differ in a detail not shown here. Identical values can stand only once. “Also recorded” adds a separate entry of the source.

Legend:
[1] = tested on: HepG2 cancer cell line; test: Flow cytometric cell cycle analysis; assay type: cell-based
[2] = tested on: A549; test: Antiproliferative MTT assay, A549; details: Homo sapiens, A549, read-out: Antiproliferative Activity IC50 ± SEM, A549
[3] = tested on: EGFR; test: Western blot assay, EGFR in HepG2; assay type: cell-based; details: HepG2, 4b used at its IC50 of 0.536 µM
Method: (§1) Western blot assay was carried out according to the previously reported protocol.

[4] = tested on: HepG2 cancer cell line; test: Cell apoptosis assay, Annexin V/PI flow cytometry; assay type: cell-based
Method: Apoptosis was determined by flow cytometry based on the Annexin-V-fluoresce in isothiocyanate (FITC) and propidium iodide (PI) staining kit (BD Pharmingen, San Diego, CA, USA). See Section 4.2.5 in Supplementary Materials.
4.2.5. Cell apoptosis assay
Apoptosis was determined by flow cytometry based on the Annexin-V-fluoresce in isothiocyanate (FITC) and propidium iodide (PI) staining kit (BD Pharmingen, San Diego, USA). Apoptotic cells were defined as Annexin-V-positive. Cells were grown to approximately ∼70% confluence and exposed to different concentrations of compounds (0, 2, 4, 6 and8 μmol/L) for 24 h. Treated cells were trypsinized, washed twice with PBS and transferred into micro centrifuge tubes for centrifugation at1000 rpm for 5 min at room temperature, then resuspended in binding buffer, 5 μL of FITC and PI were added to per eppendorf tube, cells were vortexed, incubated for 15 min at room temperature in dark. Subsequently, cells were analyzed by flow cytometry (Becton Dickinson, Franklin Lakes, USA).
4.3. Statistical analysis
Computerized GraphPad Prism software was used to statistically analyzed data using one-way ANOVA test followed by Tukey’s as post ANOVA for multiple comparison at P ≤.05. Data were presented as mean ± SEM. […]

[5] = target: T1, HDAC6 (Homo sapiens, UniProt Q9UBN7); test: In vitro HDAC inhibition assay, HDAC6
T1 sequence (Q9UBN7 1-1215): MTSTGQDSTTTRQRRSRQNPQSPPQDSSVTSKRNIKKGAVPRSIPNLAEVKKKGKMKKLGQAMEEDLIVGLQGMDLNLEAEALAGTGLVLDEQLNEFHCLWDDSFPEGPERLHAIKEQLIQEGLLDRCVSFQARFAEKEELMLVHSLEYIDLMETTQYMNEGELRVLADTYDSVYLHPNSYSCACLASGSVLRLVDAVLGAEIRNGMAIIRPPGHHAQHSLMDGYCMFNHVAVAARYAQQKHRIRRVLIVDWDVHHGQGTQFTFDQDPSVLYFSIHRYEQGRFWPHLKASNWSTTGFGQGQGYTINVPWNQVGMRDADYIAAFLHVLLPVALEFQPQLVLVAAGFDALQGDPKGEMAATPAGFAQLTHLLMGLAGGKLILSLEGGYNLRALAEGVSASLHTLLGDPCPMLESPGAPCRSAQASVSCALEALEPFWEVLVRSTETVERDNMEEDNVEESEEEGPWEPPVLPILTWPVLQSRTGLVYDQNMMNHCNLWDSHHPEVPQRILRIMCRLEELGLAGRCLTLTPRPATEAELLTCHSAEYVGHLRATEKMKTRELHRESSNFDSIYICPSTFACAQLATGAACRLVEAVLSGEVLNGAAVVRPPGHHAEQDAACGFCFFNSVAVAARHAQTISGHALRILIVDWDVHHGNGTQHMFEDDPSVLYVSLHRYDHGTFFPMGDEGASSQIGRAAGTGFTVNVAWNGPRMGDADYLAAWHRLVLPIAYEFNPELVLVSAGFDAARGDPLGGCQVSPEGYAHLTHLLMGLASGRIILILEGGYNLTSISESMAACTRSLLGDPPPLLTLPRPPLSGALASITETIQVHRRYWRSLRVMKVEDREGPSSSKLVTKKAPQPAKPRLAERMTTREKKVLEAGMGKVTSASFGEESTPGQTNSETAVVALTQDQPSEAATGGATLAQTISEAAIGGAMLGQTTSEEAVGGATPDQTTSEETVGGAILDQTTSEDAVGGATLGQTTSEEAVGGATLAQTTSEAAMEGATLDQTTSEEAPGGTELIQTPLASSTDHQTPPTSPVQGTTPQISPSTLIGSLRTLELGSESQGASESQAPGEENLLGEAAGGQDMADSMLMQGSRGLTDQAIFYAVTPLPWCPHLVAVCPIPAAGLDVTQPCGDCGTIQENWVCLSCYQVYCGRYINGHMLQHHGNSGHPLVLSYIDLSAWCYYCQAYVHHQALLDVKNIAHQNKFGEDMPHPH

[6] = target: T2, HDAC8 (Homo sapiens, UniProt Q9BY41); test: In vitro HDAC inhibition assay, HDAC8
T2 sequence (Q9BY41 1-377): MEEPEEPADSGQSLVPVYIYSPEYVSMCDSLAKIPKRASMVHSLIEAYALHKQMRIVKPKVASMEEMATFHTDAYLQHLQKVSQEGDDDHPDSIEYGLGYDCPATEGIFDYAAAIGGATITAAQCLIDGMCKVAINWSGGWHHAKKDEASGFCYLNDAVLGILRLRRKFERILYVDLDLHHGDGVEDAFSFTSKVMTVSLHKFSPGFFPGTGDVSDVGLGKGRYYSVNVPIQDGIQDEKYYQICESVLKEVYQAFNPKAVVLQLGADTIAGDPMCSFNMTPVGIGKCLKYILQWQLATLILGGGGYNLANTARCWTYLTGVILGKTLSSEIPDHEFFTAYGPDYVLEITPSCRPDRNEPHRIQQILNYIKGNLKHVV

[7] = tested on: Bcl-2; test: Bcl-2 level assay in HepG2 cancer cell line; assay type: cell-based; details: HepG2, versus control
[8] = tested on: Caspase-8; test: Caspase-8 level assay in HepG2 cancer cell line; assay type: cell-based, human
[9] = tested on: HepG2; test: Antiproliferative MTT assay, HepG2; details: Homo sapiens, HepG2, read-out: Antiproliferative Activity IC50 ± SEM, HepG2
[10] = tested on: HCT116; test: Antiproliferative MTT assay, HCT116; details: Homo sapiens, HCT-116, read-out: Antiproliferative Activity IC50 ± SEM, HCT116
[11] = target: HDAC2 (Homo sapiens, UniProt Q92769); test: In vitro HDAC inhibition assay, HDAC2
HDAC2, sequence (Q92769 whole entry): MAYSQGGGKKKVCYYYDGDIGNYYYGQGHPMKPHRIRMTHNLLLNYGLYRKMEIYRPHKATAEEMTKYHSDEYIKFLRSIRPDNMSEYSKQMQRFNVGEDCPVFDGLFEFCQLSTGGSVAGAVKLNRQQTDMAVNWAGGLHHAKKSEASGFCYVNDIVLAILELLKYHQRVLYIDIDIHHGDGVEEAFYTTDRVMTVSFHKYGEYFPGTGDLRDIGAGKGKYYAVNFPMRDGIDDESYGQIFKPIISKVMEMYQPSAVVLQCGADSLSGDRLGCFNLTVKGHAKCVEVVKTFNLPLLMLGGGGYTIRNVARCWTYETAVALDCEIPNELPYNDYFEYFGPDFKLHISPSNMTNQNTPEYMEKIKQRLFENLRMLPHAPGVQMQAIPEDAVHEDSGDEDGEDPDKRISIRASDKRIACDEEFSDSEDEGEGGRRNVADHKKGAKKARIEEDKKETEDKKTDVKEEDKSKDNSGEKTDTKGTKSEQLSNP

[12] = target: HDAC4 (Homo sapiens, UniProt P56524); test: In vitro HDAC inhibition assay, HDAC4
HDAC4, sequence (P56524 whole entry): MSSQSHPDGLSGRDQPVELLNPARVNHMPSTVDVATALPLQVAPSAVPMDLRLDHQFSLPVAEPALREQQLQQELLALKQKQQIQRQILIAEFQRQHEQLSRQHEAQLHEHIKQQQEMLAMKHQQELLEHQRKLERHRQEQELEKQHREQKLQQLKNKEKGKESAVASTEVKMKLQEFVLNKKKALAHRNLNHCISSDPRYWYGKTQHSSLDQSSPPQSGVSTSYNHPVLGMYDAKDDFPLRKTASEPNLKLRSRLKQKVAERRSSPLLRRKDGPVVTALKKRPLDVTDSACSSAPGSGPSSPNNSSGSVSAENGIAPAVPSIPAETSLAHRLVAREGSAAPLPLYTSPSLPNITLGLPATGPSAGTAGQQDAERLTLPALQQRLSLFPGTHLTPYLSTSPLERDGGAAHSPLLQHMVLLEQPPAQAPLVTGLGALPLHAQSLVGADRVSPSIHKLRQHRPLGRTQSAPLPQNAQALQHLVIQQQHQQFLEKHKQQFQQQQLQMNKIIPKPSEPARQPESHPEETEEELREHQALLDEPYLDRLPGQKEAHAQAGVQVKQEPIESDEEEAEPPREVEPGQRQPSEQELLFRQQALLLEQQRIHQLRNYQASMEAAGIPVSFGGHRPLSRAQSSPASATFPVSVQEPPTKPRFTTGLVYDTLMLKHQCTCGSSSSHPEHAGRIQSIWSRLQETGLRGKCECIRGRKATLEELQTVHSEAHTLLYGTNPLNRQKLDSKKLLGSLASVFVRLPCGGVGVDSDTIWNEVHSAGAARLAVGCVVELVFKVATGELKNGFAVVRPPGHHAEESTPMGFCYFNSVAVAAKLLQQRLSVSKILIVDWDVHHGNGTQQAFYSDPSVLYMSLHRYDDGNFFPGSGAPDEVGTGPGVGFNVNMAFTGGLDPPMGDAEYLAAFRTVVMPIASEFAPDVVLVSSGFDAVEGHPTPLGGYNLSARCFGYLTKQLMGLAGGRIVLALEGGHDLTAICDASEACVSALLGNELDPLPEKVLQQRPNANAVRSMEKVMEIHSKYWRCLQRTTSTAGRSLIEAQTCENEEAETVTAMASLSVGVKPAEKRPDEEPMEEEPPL

[13] = tested on: HDAC6; test: Western blot assay, HDAC6 in HepG2; assay type: cell-based; details: HepG2, 4b used at its IC50 of 0.536 µM
Method: as §1

[14] = tested on: Caspase-3; test: Caspase-3 level assay in HepG2 cancer cell line; assay type: cell-based, human
[15] = target: HDAC1 (Homo sapiens, UniProt Q13547); test: In vitro HDAC inhibition assay, HDAC1
HDAC1, sequence (Q13547 whole entry): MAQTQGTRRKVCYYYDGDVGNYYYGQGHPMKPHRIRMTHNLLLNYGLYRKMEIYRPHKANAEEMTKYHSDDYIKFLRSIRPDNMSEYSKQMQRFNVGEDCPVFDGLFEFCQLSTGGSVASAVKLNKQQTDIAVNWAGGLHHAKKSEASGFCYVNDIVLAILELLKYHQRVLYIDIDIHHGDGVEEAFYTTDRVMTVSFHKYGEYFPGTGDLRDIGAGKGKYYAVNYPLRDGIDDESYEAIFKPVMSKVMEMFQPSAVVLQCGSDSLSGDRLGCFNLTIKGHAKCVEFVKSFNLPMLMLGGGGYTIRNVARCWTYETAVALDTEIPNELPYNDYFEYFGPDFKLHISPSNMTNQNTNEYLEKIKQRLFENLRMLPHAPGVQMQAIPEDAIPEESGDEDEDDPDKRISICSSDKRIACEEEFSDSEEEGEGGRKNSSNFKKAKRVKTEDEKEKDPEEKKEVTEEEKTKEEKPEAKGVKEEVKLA

[16] = tested on: Bax; test: Bax level assay in HepG2 cancer cell line; assay type: cell-based
[17] = tested on: MCF-7; test: Antiproliferative MTT assay, MCF-7; details: Homo sapiens, MCF7, read-out: Antiproliferative Activity IC50 ± SEM, MCF-7
[18] = target: EGFR (Homo sapiens, UniProt P00533); test: EGFR-TK inhibition, cell-free assay; assay type: biochemical
EGFR (Homo sapiens, UniProt P00533), sequence (P00533 25-1210): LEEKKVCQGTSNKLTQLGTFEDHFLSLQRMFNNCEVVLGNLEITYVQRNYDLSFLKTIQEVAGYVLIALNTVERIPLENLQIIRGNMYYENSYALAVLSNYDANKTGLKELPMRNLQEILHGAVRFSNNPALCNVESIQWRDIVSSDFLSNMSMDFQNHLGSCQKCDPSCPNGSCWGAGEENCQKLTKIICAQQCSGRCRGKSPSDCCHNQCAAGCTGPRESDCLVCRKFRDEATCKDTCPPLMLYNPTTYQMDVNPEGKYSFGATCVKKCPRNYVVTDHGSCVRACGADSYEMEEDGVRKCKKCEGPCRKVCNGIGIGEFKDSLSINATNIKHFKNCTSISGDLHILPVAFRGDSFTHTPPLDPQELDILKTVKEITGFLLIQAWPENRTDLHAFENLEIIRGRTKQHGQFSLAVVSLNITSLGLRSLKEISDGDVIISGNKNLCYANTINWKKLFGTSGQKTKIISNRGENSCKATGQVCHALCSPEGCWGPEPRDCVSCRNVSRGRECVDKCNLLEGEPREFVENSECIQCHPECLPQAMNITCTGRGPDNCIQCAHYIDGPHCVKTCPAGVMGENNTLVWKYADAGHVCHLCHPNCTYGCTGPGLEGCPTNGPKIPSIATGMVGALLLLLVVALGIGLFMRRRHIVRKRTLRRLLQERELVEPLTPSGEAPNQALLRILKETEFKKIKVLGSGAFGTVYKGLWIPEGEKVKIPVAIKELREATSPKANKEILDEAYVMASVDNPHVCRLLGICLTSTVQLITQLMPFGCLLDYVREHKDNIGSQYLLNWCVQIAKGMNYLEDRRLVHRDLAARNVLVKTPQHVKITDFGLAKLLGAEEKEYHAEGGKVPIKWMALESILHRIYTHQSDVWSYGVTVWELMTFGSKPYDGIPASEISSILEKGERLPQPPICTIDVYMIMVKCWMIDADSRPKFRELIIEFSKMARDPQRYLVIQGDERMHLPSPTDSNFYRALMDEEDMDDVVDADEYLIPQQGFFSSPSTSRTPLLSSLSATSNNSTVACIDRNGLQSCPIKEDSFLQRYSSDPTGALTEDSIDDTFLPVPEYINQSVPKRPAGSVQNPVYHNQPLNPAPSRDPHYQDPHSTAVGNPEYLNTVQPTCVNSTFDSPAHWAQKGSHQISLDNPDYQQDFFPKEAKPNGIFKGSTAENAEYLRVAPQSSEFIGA

IC50 [2]: 797 ± 40 nM
IC50 [5]: 60 nM
IC50 [6]: 2260 nM
IC50 [9]: 536 ± 30 nM
IC50 [10]: 1210 ± 70 nM
IC50 [11]: 168 nM
IC50 [12]: 5850 nM
IC50 [15]: 148 nM
IC50 [17]: 621 ± 30 nM
IC50 [18]: 63 ± 2 nM
SMILES: COc1cc(/C=C/C(=O)c2ccc(OCCCCCC(=O)NO)cc2)cc(OC)c1OC [4b, (E)-N-Hydroxy-6-(4-(3-(3,4,5-Trimethoxyphenyl)Acryloyl)Phenoxy) Hexanamide]
Comment (cell cycle arrest) [1]: cell cycle arrest at G1/S phase; also recorded: cell growth arrest at G1/S
%Pre-G1 ([1]; control 2.16): 47.21%
%G2/M ([1]; control 20.45): 7.85%
%S ([1]; control 36.58): 39.11%
%G0–G1 ([1]; control 42.97): 53.04%
EGFR expression (Western blot) [3]: decrease
Apoptosis Late ([4]; control 0.12): 24.67
percentage of cell apoptosis (late; upper right quadrant Annexin V/PI) ([4]; control 0.12%): 24.67%
Apoptosis Early ([4]; control 0.34): 9.33
Necrosis ([4]; control 1.7): 13.21
Apoptosis Total ([4]; control 2.16): 47.21
Bcl-2 Fold Change [7]: 0.42 fold
Caspase-8 Fold Change ([8]; HepG2, versus control): 3.15 fold
Caspase-8 Conc ([8]; HepG2 cancer cell line): 1.078 ng/mL and 1.078 ± 0.046 ng/mL
HDAC6 expression (Western blot) [13]: decrease
Caspase-3 Conc [14]: 483.2 pg/mL and 483.2 ± 14.72 pg/mL
Bax Fold Change ([16]; HepG2, versus control): 3.75 fold
Bax Conc ([16]; HepG2 cancer cell line): 398.9 ± 14.3 pg/mL
